This note sets out measurements from PubChem BioAssay (NCI).

Among the test systems are UO-31 renal; T-47D breast; SF-295 CNS; CAKI-1 renal; SK-MEL-2 melanoma; UACC-62 melanoma; HT29 colon; NCI/ADR-RES ovarian; COLO 205 colon; SF-268 CNS; LOX IMVI melanoma; MDA-N; HOP-92 NSCLC; SK-MEL-28 melanoma; NCI-H23 lung; NCI-H226 lung; PC-3 prostate.
What all share (experiment): growth of human tumour cells (NCI), 48 h

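Method: 48-hour compound exposure of cells in 96-well plates, five concentrations, linear interpolation of endpoints. TGI: concentration producing complete growth inhibition.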 Bounds are passed on as bounds.

For the compound `O=[N+]([O-])c1ccc2nc(/C=C(\O)c3ccc(F)cc3)c(/C=C(\O)c3ccc(F)cc3)nc2c1`, the TGI in the experiment on UO-31 renal is greater than 100 µM; with T-47D breast it was greater than 100 µM; with SF-295 CNS, 57.6 µM; in the experiment with CAKI-1 renal, greater than 100 µM; in the experiment on SK-MEL-2 melanoma, 45.2 µM; with UACC-62 melanoma it was greater than 100 µM. In addition, the TGI with HT29 colon, in the experiment on NCI/ADR-RES ovarian, with COLO 205 colon, with SF-268 CNS, in the experiment on LOX IMVI melanoma and in the experiment with MDA-N was greater than 100 µM throughout. Further, the TGI is greater than 100 µM in the experiment with HOP-92 NSCLC; greater than 100 µM in the experiment with SK-MEL-28 melanoma; 77.7 µM in the experiment with NCI-H23 lung; 89 µM in the experiment with NCI-H226 lung; greater than 100 µM in the experiment with PC-3 prostate.
`C=CC[C@H]1[C@H](O[Si](C)(C)C(C)(C)C)C=CC(=O)[C@@H]1CC(=O)N(Cc1ccccc1)Cc1ccccc1`: the TGI was 41.2 µM in the experiment on UO-31 renal; 44.2 µM in the experiment on T-47D breast; greater than 100 µM in the experiment on SF-295 CNS; 90.2 µM with CAKI-1 renal; 38.3 µM in the experiment on SK-MEL-2 melanoma; greater than 100 µM with UACC-62 melanoma. In addition, the TGI in the experiment with HT29 colon is 29.2 µM; in the experiment on NCI/ADR-RES ovarian it was 80.6 µM; in the experiment with COLO 205 colon, 25.6 µM; in the experiment with SF-268 CNS, 93.4 µM; in the experiment with LOX IMVI melanoma, 26.9 µM; in the experiment on MDA-N, greater than 100 µM. Moreover, the TGI in the experiment with HOP-92 NSCLC is 8.51 µM; with SK-MEL-28 melanoma it was greater than 100 µM; in the experiment with NCI-H23 lung, 30.5 µM; in the experiment with NCI-H226 lung, 46.7 µM; with PC-3 prostate it was greater than 100 µM.
For the compound `CN(CCc1ccc(N)cc1)[C@H]1CCCC[C@H]1N1CCCC1`, the TGI with UO-31 renal, in the experiment with T-47D breast, with SF-295 CNS, with CAKI-1 renal, with SK-MEL-2 melanoma and in the experiment on UACC-62 melanoma was greater than 100 µM each time. Also, the TGI with HT29 colon, with NCI/ADR-RES ovarian, in the experiment with COLO 205 colon, with SF-268 CNS, with LOX IMVI melanoma and in the experiment on MDA-N was greater than 100 µM each time. Also, the TGI in the experiment on HOP-92 NSCLC, with SK-MEL-28 melanoma, with NCI-H23 lung, with NCI-H226 lung and in the experiment with PC-3 prostate was greater than 100 µM each time.
`O=S1C2=C(Cc3ccccc3)C(Cc3ccccc3)=C1CCc1cccc(c1)CC2`: the TGI with UO-31 renal turned out to be 25.8 µM; in the experiment on T-47D breast, 44.8 µM; in the experiment on SF-295 CNS, 27.1 µM; with CAKI-1 renal, 28.7 µM; in the experiment with SK-MEL-2 melanoma it was 31.1 µM; with UACC-62 melanoma, 24.7 µM. Also, the TGI with HT29 colon worked out at 26 µM; with NCI/ADR-RES ovarian it was 38.7 µM; in the experiment with COLO 205 colon it was 58.8 µM; in the experiment on SF-268 CNS it was 31.8 µM; in the experiment with LOX IMVI melanoma, 28.1 µM; with MDA-N it was 30.6 µM. For the same compound, the TGI turned out to be 26.4 µM in the experiment with HOP-92 NSCLC; 42.3 µM in the experiment with SK-MEL-28 melanoma; 28.2 µM in the experiment on NCI-H23 lung; 47.8 µM in the experiment with NCI-H226 lung; 29.3 µM in the experiment with PC-3 prostate.
With `COc1cccc(NC(=O)CC(=O)N2N=C(C)C(N=Nc3ccc(S(=O)(=O)c4ccc(N=NC5C(=O)N(C(=O)CC(=O)Nc6cccc(OC)c6)N=C5C)cc4)cc3)C2=O)c1` (configuration not stated), the TGI with UO-31 renal, in the experiment on T-47D breast, in the experiment on SF-295 CNS, with CAKI-1 renal, in the experiment with SK-MEL-2 melanoma and in the experiment on UACC-62 melanoma was greater than 100 µM throughout. The TGI in the experiment with HT29 colon, in the experiment with NCI/ADR-RES ovarian, in the experiment with COLO 205 colon, in the experiment on SF-268 CNS, in the experiment with LOX IMVI melanoma and with MDA-N was greater than 100 µM each time. For the same compound, the TGI in the experiment with HOP-92 NSCLC, with SK-MEL-28 melanoma, in the experiment on NCI-H23 lung, in the experiment on NCI-H226 lung and with PC-3 prostate was greater than 100 µM in each case.
In the case of `COc1ccc(CCNC(=O)Cc2cc(OC)c(OC)cc2CO)cc1OC`, the TGI in the experiment with UO-31 renal, in the experiment with T-47D breast, in the experiment on SF-295 CNS, in the experiment with CAKI-1 renal, in the experiment on SK-MEL-2 melanoma and with UACC-62 melanoma was greater than 100 µM throughout. For the same compound, the TGI in the experiment on HT29 colon, with NCI/ADR-RES ovarian, in the experiment on COLO 205 colon, with SF-268 CNS, in the experiment on LOX IMVI melanoma and in the experiment with MDA-N was greater than 100 µM each time. Also, the TGI in the experiment with HOP-92 NSCLC, with SK-MEL-28 melanoma, with NCI-H23 lung, in the experiment on NCI-H226 lung and in the experiment with PC-3 prostate was greater than 100 µM in each case.
